Where “and” joins values, the source holds several entries; their conditions need not be identical. Identical values can stand only once. Toxic doses and inconclusive results are not listed. Rule for the calls: active = survival T/C of 150% or more; inactive = T/C below 125% in these data.
Tested on: BDF1 mice, P388 leukemia ip, median survival T/C
Assay: NCI In Vivo Anticancer Drug Screen. Data for tumor model P388 Leukemia (intraperitoneal) in B6D2F1 (BDF1) mice
Details: endpoint: median survival time, higher = longer survival
Procedure, shortened: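 Antitumour effect was judged in vivo: survival in drug-treated mice, normalised to that of vehicle-dosed controls, gives the reported T/C.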

[1] = dose: 100.0 mg/kg/injection, schedule: Q01DX009 (ip), vehicle: saline with Tween-80
[2] = dose: 100.0 mg/kg/injection, schedule: Q04DX003 (ip), vehicle: saline with Tween-80
[3] = dose: 200.0 mg/kg/injection, schedule: Q04DX003 (ip), vehicle: saline with Tween-80
[4] = dose: 400.0 mg/kg/injection, schedule: Q04DX003 (ip), vehicle: saline with Tween-80
[5] = dose: 100.0 mg/kg/injection, schedule: Q01DX009 (ip), vehicle: Klucel (hydroxypropylcellulose) (HPC)
[6] = dose: 200.0 mg/kg/injection, schedule: Q01DX009 (ip), vehicle: Klucel (hydroxypropylcellulose) (HPC)
[7] = dose: 50.0 mg/kg/injection, schedule: Q01DX009 (ip), vehicle: saline with Tween-80
[8] = dose: 200.0 mg/kg/injection, schedule: Q01DX009 (ip), vehicle: saline with Tween-80
[9] = dose: 100.0 mg/kg/injection, schedule: Q04DX003 (ip), vehicle: saline
[10] = dose: 12.5 mg/kg/injection, schedule: Q01DX009 (ip), vehicle: saline

Measured: T/C

CC(C)NCC(=O)c1ccc(O)c(O)c1
inactive: [1] 109 % of control | [2] 100 % of control | [3] 100 % of control | [4] 100 % of control

O=C(NNC(=O)OCc1ccccc1)OCc1ccccc1
inactive: dose: 50.0 mg/kg/injection, schedule: Q01DX009 (ip), vehicle: Klucel (hydroxypropylcellulose) (HPC) 96 % of control | [5] 96 % of control | dose: 100.0 mg/kg/injection, schedule: Q04DX003 (ip), vehicle: Klucel (hydroxypropylcellulose) (HPC) 90 % of control | [6] 92 % of control | dose: 200.0 mg/kg/injection, schedule: Q04DX003 (ip), vehicle: Klucel (hydroxypropylcellulose) (HPC) 109 % of control

CS(=O)CC(O)(c1ccccc1)c1ccco1 (stereo unspecified)
inactive: [7] 116 % of control | [1] 107 % of control | [8] 106 % of control

COC(=O)C(Cc1c[nH]c2ccccc12)NC(=O)C(Cc1c[nH]c2ccccc12)NC(=O)OC(C)(C)C (stereo unspecified)
inactive: dose: 100.0 mg/kg/injection, schedule: Q01DX001 (ip), vehicle: saline with Tween-80 90 % of control | dose: 200.0 mg/kg/injection, schedule: Q01DX001 (ip), vehicle: saline with Tween-80 86 % of control | dose: 400.0 mg/kg/injection, schedule: Q01DX001 (ip), vehicle: saline with Tween-80 90 % of control

Cc1ccc2ccccc2n1
inactive: [9] 87 % of control | dose: 200.0 mg/kg/injection, schedule: Q04DX003 (ip), vehicle: saline 91 % of control

CS(=O)(=O)Nc1ccccc1[N+](=O)[O-]
inactive: [7] 109 % of control | [1] 104 % of control and 115 % of control | [8] 100 % of control

C/C=C1\CCC2C(=C1C)CC1C2CC=C2CC(OC(C)=O)CCC21C (stereo unspecified)
inactive: [5] 115 % of control | [6] 120 % of control | dose: 400.0 mg/kg/injection, schedule: Q01DX009 (ip), vehicle: Klucel (hydroxypropylcellulose) (HPC) 105 % of control

C[C@H]1C(=O)O[C@@H]2CCN3CC=C(COC(=O)[C@](C)(O)[C@@]1(C)O)[C@H]23
inactive: dose: 3.13 mg/kg/injection, schedule: Q01DX010 (ip), vehicle: saline 100 % of control | dose: 6.2 mg/kg/injection, schedule: Q01DX009 (ip), vehicle: saline 111 % of control | dose: 6.25 mg/kg/injection, schedule: Q01DX010 (ip), vehicle: saline 100 % of control | [10] 122 % of control | dose: 12.5 mg/kg/injection, schedule: Q01DX009 (ip), vehicle: water 109 % of control | dose: 12.5 mg/kg/injection, schedule: Q01DX010 (ip), vehicle: saline 104 % of control | dose: 25.0 mg/kg/injection, schedule: Q01DX009 (ip), vehicle: water 86 % of control | dose: 25.0 mg/kg/injection, schedule: Q01DX010 (ip), vehicle: saline 104 % of control | dose: 50.0 mg/kg/injection, schedule: Q01DX009 (ip), vehicle: water 118 % of control | dose: 75.0 mg/kg/injection, schedule: Q01DX009 (ip), vehicle: water 104 % of control

NC(=O)NN=C1CCC(c2ccccc2)CC1 (stereo unspecified)
inactive: [7] 112 % of control | [1] 112 % of control

C=C1C2CCC3(C)C(c4ccoc4)OC(=O)CC13OC1CC(=O)C(C)(C)C(CC(=O)OC)C12C (stereo unspecified)
inactive: dose: 2.0 mg/kg/injection, schedule: Q01DX009 (ip), vehicle: Klucel (hydroxypropylcellulose) (HPC) 100 % of control | dose: 4.0 mg/kg/injection, schedule: Q01DX009 (ip), vehicle: Klucel (hydroxypropylcellulose) (HPC) 100 % of control | dose: 8.0 mg/kg/injection, schedule: Q01DX009 (ip), vehicle: Klucel (hydroxypropylcellulose) (HPC) 96 % of control | dose: 16.0 mg/kg/injection, schedule: Q01DX009 (ip), vehicle: Klucel (hydroxypropylcellulose) (HPC) 100 % of control | dose: 32.0 mg/kg/injection, schedule: Q01DX009 (ip), vehicle: Klucel (hydroxypropylcellulose) (HPC) 89 % of control

CSc1ccccc1C(C)(C)O
inactive: dose: 50.0 mg/kg/injection, schedule: Q01DX009 (ip), vehicle: other 100 % of control | dose: 100.0 mg/kg/injection, schedule: Q01DX009 (ip), vehicle: other 104 % of control | dose: 200.0 mg/kg/injection, schedule: Q01DX009 (ip), vehicle: other 113 % of control

O=C/C(Cl)=C(/Cl)C(=O)O
inactive: dose: 6.25 mg/kg/injection, schedule: Q04DX002 (ip), vehicle: saline with Tween-80 110 % of control | dose: 12.5 mg/kg/injection, schedule: Q04DX002 (ip), vehicle: saline with Tween-80 108 % of control | dose: 25.0 mg/kg/injection, schedule: Q04DX002 (ip), vehicle: saline with Tween-80 103 % of control

Nc1nc(N)c(-c2ccccc2)c(C(=O)O)n1
inactive: dose: 100.0 mg/kg/injection, schedule: Q01DX001 (ip), vehicle: Klucel (hydroxypropylcellulose) (HPC) 109 % of control | dose: 200.0 mg/kg/injection, schedule: Q01DX001 (ip), vehicle: Klucel (hydroxypropylcellulose) (HPC) 118 % of control | dose: 400.0 mg/kg/injection, schedule: Q01DX001 (ip), vehicle: Klucel (hydroxypropylcellulose) (HPC) 113 % of control

O=C1N=C(C(F)(F)F)N=C1c1[nH]c(C(F)(F)F)nc1O
inactive: [7] 111 % of control | [1] 102 % of control | [2] 100 % of control | [8] 102 % of control | [3] 102 % of control | dose: 400.0 mg/kg/injection, schedule: Q01DX009 (ip), vehicle: saline with Tween-80 116 % of control | [4] 98 % of control

CC(=O)Nc1ccc(S(=O)(=O)F)cc1[N+](=O)[O-]
inactive: dose: 25.0 mg/kg/injection, schedule: Q04DX003 (ip), vehicle: saline 100 % of control | dose: 50.0 mg/kg/injection, schedule: Q04DX003 (ip), vehicle: saline 100 % of control | [9] 115 % of control

Nc1nc2c(ncn2C2OC(CO)C(O)C2N)c(=O)[nH]1 (stereo unspecified)
inactive: dose: 3.12 mg/kg/injection, schedule: Q01DX009 (ip), vehicle: saline 111 % of control | dose: 6.25 mg/kg/injection, schedule: Q01DX009 (ip), vehicle: saline 111 % of control and 124 % of control | [10] 102 % of control and 117 % of control | dose: 25.0 mg/kg/injection, schedule: Q01DX009 (ip), vehicle: saline 93 % of control and 111 % of control | dose: 50.0 mg/kg/injection, schedule: Q01DX009 (ip), vehicle: saline 108 % of control | [2] 109 % of control | [4] 100 % of control

Cc1ccc(NC(=O)Oc2c(C)cc(Cl)cc2C)c([N+](=O)[O-])c1
inactive: dose: 25.0 mg/kg/injection, schedule: Q01DX009 (ip), vehicle: saline with Tween-80 90 % of control | [7] 101 % of control

CCCNC(=O)Nc1ccc(C)c(Cl)c1
inactive: [2] 104 % of control | [3] 100 % of control | [4] 95 % of control

From PubChem BioAssay AID328 (DTP/NCI, 2004)
